Measured values as given in patent US20130030055A1, “COMPOSITIONS AND METHODS FOR TREATING HAIR LOSS, HAIR THINNING, AND HAIR COLOR LOSS” (priority 2010, published 2013).

Assay: Randomized vehicle-controlled study: intraocular pressure
Format: in vivo, human
Conditions: eye as sampling unit
Procedure: Safety measurements collected during this study included adverse events, ophthalmic examination variables (iris color, IOP, visual acuity, biomicroscopy, and ophthalmoscopy), physical examination, vital signs, and pregnancy testing.
Iris color was recorded for each subject at every study visit. Iris color was grouped as light (blue, blue-gray, blue/gray-brown, green, green-brown, hazel, and other) and dark (brown and dark brown). If the “other” category contained black in the description, it was grouped as dark. IOP (measured at approximately the same time of day at each visit), visual acuity, and biomicroscopy data were collected at screening, week 1, and months 1, 2, 3, 4, and 5. Ophthalmoscopy (dilated) was performed at screening and month 4.
IOP measurements were collected twice for each eye. If the 2 measurements differed by more than 2 mmHg, a third measurement was taken on that eye. If 2 measurements were collected, the average of the 2 was recorded as the IOP for a particular eye; if a third measurement was collected, the median measurement was recorded as the IOP for that eye. As all subjects were treated bilaterally, the average of the subject's right and left eye IOP values was analyzed for each time point. In the case where data were collected for only 1 eye, the collected data served as the IOP for the subject at that time point. […] Within-group changes from baseline were analyzed by the paired t-test. All analyses were based on observed cases and no data imputations were performed.
All adverse events were summarized and analyzed by the following subgroups: age (<45, 45 to 65, and >65 years), gender, and race (Caucasian and non-Caucasian). This was performed for both the treatment and posttreatment periods. Analyses of IOP were stratified by 3 subgroups, according to baseline IOP (8 to 12 mm Hg, >12 to 15 mm Hg, and >15 mm Hg). These ranges were determined by taking the bottom tercile, middle tercile, and the top tercile of baseline IOPs. The sampling unit was the “eye” (ie, each subject contributed 2 data points). Within each of the subgroups, the number and percent of subjects with an IOP of ≦6 mmHg was summarized by treatment group and visit utilizing a frequency table and was analyzed by the Pearson's chi-square test or Fisher's exact tables for 2-by-2 tables for each visit. The sampling unit was the eye and not the subject. In addition, a scatterplot of baseline IOP versus final IOP for each treatment group was presented for the treatment period and post-treatment period.

CCNC(=O)CCC/C=C\C[C@@H]1[C@@H](/C=C/[C@@H](O)CCc2ccccc2)[C@H](O)C[C@@H]1O [bimatoprost]
Intraocular pressure, Max (Week 12): 3.5 mmHg
Intraocular pressure, Median (Week 12): −1.25 mmHg
Intraocular pressure, Min (Week 12): −7.0 mmHg
Intraocular pressure, Mean (Week 12, N 252): −1.54 mmHg
Intraocular pressure, Max (Week 16): 6.0 mmHg
Intraocular pressure, Median (Week 16): −1.50 mmHg
Intraocular pressure, Min (Week 16): −7.5 mmHg
Intraocular pressure, Mean (Week 16, N 252): −1.25 mmHg
Intraocular pressure, Max (Week 20 (post-treatment)): 5.0 mmHg
Intraocular pressure, Median (Week 20 (post-treatment)): −0.50 mmHg
Intraocular pressure, Min (Week 20 (post-treatment)): −7.5 mmHg
Intraocular pressure, Mean (Week 20 (post-treatment), N 262): −0.67 mmHg
